Data set [1] relates to E. coli MG1655 wild-type. Briefly: Toxicity of methylglyoxal, growth inhibition of wild-type. The class given is cell-based. The conditions noted are these: minimal medium with pure glycerol 10 g/l; microtiterplates, 37° C.; OD580 48.5 h after inoculation. Here is the method:
(§1) E. coli MG1655 wild-type or mutants inactivated in the genes gloA and gloB, respectively, were cultivated in minimal-medium with pure-glycerol (10 g/l) as source for carbon and energy containing different amounts of methylglyoxal. Tests for methylglyoxal indicated a period of at least 72 h of chemical stability. E. coli was cultivated in microtiterplates without agitation at 37° C. under a humid atmosphere. Growth was determined at OD580 48.5 h after inoculation (FIG. 1; black bars, E. coli MG1655 wild-type; grey bars, E. coli MG1655 gloA-mutant; hatched bars, E. coli MG1655 gloB-mutant).

Data set [2] deals with E. coli MG1655 gloA-mutant. Briefly: Toxicity of methylglyoxal, growth inhibition of gloA-mutant. The class given is cell-based. The conditions noted are these: gloA (glyoxylase I) mutant, especially sensitive; OD580 48.5 h after inoculation. Here is the method:
as §1

The subject of data set [3] is E. coli MG1655 gloB-mutant. Briefly: Toxicity of methylglyoxal, growth inhibition of gloB-mutant. The class given is cell-based. The conditions noted are these: OD580 48.5 h after inoculation. Here is the method:
as §1

Data set [4] in a line: Chemical stability of methylglyoxal. The class given is physicochemical. The method, then: as §1
Data set [5] relates to E. coli MG1655. Briefly: Biomass production of E. coli MG1655 on crude or pure glycerol. The class given is cell-based. The conditions noted are these: oxic conditions, unregulated pH, cultivation tubes. The method, then: E. coli was cultured in a defined minimal medium that was designed to contain low levels of phosphate, since phosphate is a known inhibitor of methyglyoxal synthase. Per liter, the medium contained: E. coli strains were routinely propagated in cultivation tubes (total volume 30 ml. Inoculum 5 ml) or glass bottles sealed with rubber-stoppers (total volume 12 ml, inoculum 10 ml) for creating semi-anoxic conditions. The term “cultivation under oxic conditions” implies cultivation in non-sealed containments with agitation. Semi-anoxic in that context means cultivation of strains without agitation in medium that was prepared under oxic conditions and in closed containments, e.g. bottles sealed with rubber-stoppers upon inoculation to avoid diffusing in of external oxygen. Cultivation times varied between 2 and 5 days, for oxic and semi-anoxic conditions, respectively. […] [table]

Data set [6] relates to E. coli MG1655. Briefly: Potential of impurities in crude glycerol to substitute for macro-elements of minimal medium (biomass production). The class given is cell-based. Conditions: glycerol 10 g/l, oxic, unregulated pH.
Data set [7] relates to E. coli DH5alpha araB-knockout. Briefly: Growth on glucose or glycerol as carbon source, control strain. The class given is cell-based. The conditions noted are these: no plasmid, carbon source 10 g/l, 37° C., oxic, 5 days. An excerpt:
(§2) Genes gldA from E. coli encoding […], dhaK from Citrobacter freundii encoding dihydroxyacetone kinase (dhaK) and fucO from E. coli encoding propanediol-oxidoreductase were cloned in plasmid pB2araJ to give plasmid pDP_gdf. Plasmid pDP_mgdf additionally contains methylglyoxal synthase from E. coli. According to known biochemical pathways, propanediol oxidoreductase is not relevant for this example. However, we tested plasmid pDP_gdf and its derivative, pDP_mgdf for functional complementation of a glpK-knock out, since these plasmids are relevant for recombinant 1,2-PD production.
(§3) Thus, an inducible unregulated pathway independent of the endogenous route to metabolise glycerol was established. The biomass finally obtained is equal or even higher compared to growth of a control strain (DH5alpha[…]araB) or when glucose is the substrate for growth.

Data set [8] relates to E. coli DH5alpha araB glpK mutant. Briefly: Growth on glucose or glycerol as carbon source, glpK mutant. Type of data set: cell-based. The conditions noted are these: no plasmid, carbon source 10 g/l, 37° C., oxic, 5 days.
Excerpt: as §2, §3

Data set [9] deals with E. coli DH5alpha araB glpK mutant with plasmid pDP_gdf. Briefly: Growth on glucose or glycerol as carbon source, glpK mutant with plasmid pDP_gdf. Conditions: carbon source 10 g/l, 37° C., oxic, 5 days. Type of data set: cell-based.
Excerpt: as §2, §3

The subject of data set [10] is E. coli DH5alpha araB glpK mutant with plasmid pDP_mgdf. Briefly: Growth on glucose or glycerol as carbon source, glpK mutant with plasmid pDP_mgdf. Type of data set: cell-based. The conditions noted are these: carbon source 10 g/l, 37° C., oxic, 5 days.
Excerpt: as §2, §3

Molecules are shown by their SMILES.

`CC(=O)C=O` [methylglyoxal]: the “extracellular concentration of methylglyoxal at which inhibition of growth was observed” value in data set [1] is at least 2.5 mM. In addition, the “sensitivity of growth to methylglyoxal compared with wild-type” value in data set [2] and in data set [3] was “significantly more sensitive” throughout. Further, the “period of chemical stability” value in data set [4] is given as “at least 72 h”.

As for `OCC(O)CO` [pure glycerol, glycerol], the “Biomass production [OD580] Ø” value was found to be 0.5 OD580 in [5] (substrate 0.63 g/l); 0.6 OD580 in [5] (substrate 1.25 g/l); 1.2 OD580 in data set [5] (substrate 2.5 g/l); 5.0 OD580 in data set [5] (substrate 10 g/l); 6.0 OD580 in data set [5] (substrate 20 g/l); 5.7 OD580 in [5] (substrate 40 g/l). Moreover, the “Biomass production [OD580] Ø” value in [6] (culture broth devoid of nitrogen) is recorded as 1.1 OD580; in data set [6] (culture broth devoid of none), 2.5 OD580; in data set [6] (culture broth devoid of phosphate), 1.2 OD580; in data set [6] (culture broth devoid of sulfate) it was 1.0 OD580; in data set [6] (culture broth devoid of trace-elements) it was 2.4 OD580. Further, the “Biomass production OD580” value in data set [7] worked out at 2.0 OD580; in [8], 0.1 OD580; in data set [9] it was 4.5 OD580; in data set [10], 5.5 OD580.

The record behind these values is patent publication US20110124069A1, “PRODUCTION METHOD” (priority 2008, published 2011).
